Data set [1] concerns UV-induced edema and erythema. Description: Sinclair miniature swine phototoxicity model: sites treated topically for 7 days, then exposed to UV (prevention). The format is in vivo. The following applies: for prevention of UV-induced erythema: topical before UV exposure; for average Draize score as compared to test sites treated with the control vehicle: test sites first treated topically twice daily for 7 days, then exposed to UV radiation, vehicle ethanol, FIGS. 7-12. The method, then: Compositions comprising DGLA and/or 15-HETrE were tested for their ability to treat and/or prevent edema and erythema (e.g., UV induced erythema). In an exemplary method, a Sinclair miniature swine model of phototoxicity testing was employed to examine the effects of such compositions on UV-induced edema and erythema. Miniature swine were chosen for these studies as they have a skin structure that closely resembles that of humans. The miniature swine used in these studies were fed standard Sinclair S-9 ration or equivalent, once a day at a maintenance amount and had ad libitum access to deep well water. Throughout the study, the swine were housed individually in cages (˜3×5 ft) constructed of stainless steel with self-spanned polyvinyl chloride (PVC)-coated expanded metal flooring. The animal housing rooms were set to maintain a room temperature of 16 to 27° C. (61 to 81° F.), with fluorescent lights providing an approximate 12-hr light/12-hr dark photoperiod. The animals were acclimated for approximately 5 days prior to the start of dosing. During acclimation, animals were subject to a physical examination by a veterinarian and any animal with questionable health was excluded from these studies. For these studies, two groups each consisting of three animals (#1-#3) were used. For each animal, ten sites (e.g., dose sites) for were established on the torso and the hair at the site was clipped with an electric clipper. These sites were then shaved and demarcated by tattooing at least four days prior to the start of initial dosing on study day 1. The dose sites may be shaved with a razor the day prior to initial dose administration and prior to the second and third application when applicable. The sites (approximately 4 cm^2 in size) were evenly split on the left and right side with 5 sites demarcated on each side. Each animal was topically administered a composition comprising a control vehicle (ethanol), DGLA or HETrE to the demarcated test sites on the animal before and/or after exposure of the test sites to UV radiation. Specifically, […] comprising 0.1 mg/mL, 1.0 mg/mL, or 10 mg/mL 15-HETrE was applied to separate 4 cm^2 areas of the skin (e.g., test sites) on each animal to achieve a dose per area of 0.1 mg/4 cm^2, 1.0 mg/4 cm^2, or 10.0 mg/4 cm^2 DGLA or 0.1 mg/4 cm^2, 1.0 mg/4 cm^2, or 10.0 mg/4 cm^2 15-HETrE, respectively. Such compositions were applied via a pipette twice daily with approximately seven hours between administrations over 7 days. Table 1 below outlines the dosing regimen for the 10 sites on each animal and indicates the day that the animal was administered a dose of UV radiation. For example, for test sites 5-7, the sites were first exposed to UV radiation on day 4 and then contacted topically with DGLA or HETrE on days 4-10. Additionally, for example, for test sites 8-10, the sites were topically contacted with DGLA or HETrE on days 1-7 and then exposed to UV radiation on day 8. [table] Animals receiving UV light were anesthetized via isoflurane gas and 100% oxygen. To exposure the animals to UV, a bank of fluorescent lamps utilizing 10 UVA and 1 UVB bulb was then suspended over the animal. The correct dose level of UV light applied to the designated dose site was verified using a Solar Light® light meter. Animals were exposed to MED/hi of 4 for a time period of 21 minutes yielding a MEDi of 1.4. […]

For data set [2], the system named is UV-induced edema and erythema. Put plainly: Sinclair miniature swine phototoxicity model: sites exposed to UV, then treated topically for 7 days (treatment). The format is in vivo. The settings on record: for average Draize score as compared to test sites treated with the control vehicle: test sites first exposed to UV radiation, then treated topically twice daily for 7 days, any of the tested dosages, vehicle ethanol, FIGS. 1-6; for treating or reversing UV induced erythema: topical application after UV exposure. The method, then:
Compositions comprising DGLA and/or 15-HETrE were tested for their ability to treat and/or prevent edema and erythema (e.g., UV induced erythema). In an exemplary method, a Sinclair miniature swine model of phototoxicity testing was employed to examine the effects of such compositions on UV-induced edema and erythema. Miniature swine were chosen for these studies as they have a skin structure that closely resembles that of humans. The miniature swine used in these studies were fed standard Sinclair S-9 ration or equivalent, once a day at a maintenance amount and had ad libitum access to deep well water. Throughout the study, the swine were housed individually in cages (˜3×5 ft) constructed of stainless steel with self-spanned polyvinyl chloride (PVC)-coated expanded metal flooring. The animal housing rooms were set to maintain a room temperature of 16 to 27° C. (61 to 81° F.), with fluorescent lights providing an approximate 12-hr light/12-hr dark photoperiod. The animals were acclimated for approximately 5 days prior to the start of dosing. During acclimation, animals were subject to a physical examination by a veterinarian and any animal with questionable health was excluded from these studies. For these studies, two groups each consisting of three animals (#1-#3) were used. For each animal, ten sites (e.g., dose sites) for were established on the torso and the hair at the site was clipped with an electric clipper. These sites were then shaved and demarcated by tattooing at least four days prior to the start of initial dosing on study day 1. The dose sites may be shaved with a razor the day prior to initial dose administration and prior to the second and third application when applicable. The sites (approximately 4 cm^2 in size) were evenly split on the left and right side with 5 sites demarcated on each side. Each animal was topically administered a composition comprising a control vehicle (ethanol), DGLA or HETrE to the demarcated test sites on the animal before and/or after exposure of the test sites to UV radiation. Specifically, a 0.1 mL dose of a composition comprising 1 mg/mL, 10 mg/mL, or 100 mg/mL of DGLA and a 0.1 mL dose of a composition comprising 0.1 mg/mL, 1.0 mg/mL, or 10 mg/mL 15-HETrE was applied to separate 4 cm^2 areas of the skin (e.g., test sites) on each animal to achieve a dose per area of 0.1 mg/4 cm^2, 1.0 mg/4 cm^2, or 10.0 mg/4 cm^2 DGLA or 0.1 mg/4 cm^2, 1.0 mg/4 cm^2, or 10.0 mg/4 cm^2 15-HETrE, respectively. Such compositions were applied via a pipette twice daily with approximately seven hours between administrations over 7 days. Table 1 below outlines the dosing regimen for the 10 sites on each animal and indicates the day that the animal was administered a dose of UV radiation. […]

Two molecules from patent US9855236B2, “Pharmaceutical compositions comprising DGLA and/or 15-HETrE and methods of use thereof” (Dignity Sciences Limited, priority 2011, dated 2018) can be followed below.

SMILES strings stand for the structures.

`CCCCC/C=C\C/C=C\C/C=C\CCCCCCC(=O)O` [DGLA, cis-8,11,14-eicosatrienoic acid]: in data set [1] (10 mg/mL dose of DGLA, topical, prevention of erythema could not be determined at this dose), the “skin irritation by the high dose” value was “irritating to the skin”. In data set [1] (dose of 0.1 or 1.0 mg/mL DGLA), the “prevention of UV-induced erythema” value is given as “able to prevent UV-induced erythema”. For the same molecule, in data set [1], the “average Draize score as compared to test sites treated with the control vehicle” value is given as “significant reduction”. Besides, in data set [2], the “average Draize score as compared to test sites treated with the control vehicle” value was “did not exhibit an appreciable difference” and the “treating or reversing UV induced erythema” value is “not capable of treating or reversing UV induced erythema”.

On to `CCCCCC(O)/C=C/C=C\C/C=C\CCCCCCC(=O)O` (stereo not drawn) [HETrE, 15-Hydroxy-eicosa-8(Z),11(Z),13(E)-trienoic acid], for which the “prevention of UV-induced erythema” value in data set [1] (dose of 0.01, 0.1, or 1.0 mg/mL HETrE) is reported as “able to prevent UV-induced erythema”. Besides, the “average Draize score as compared to test sites treated with the control vehicle” value in data set [1] was “significant reduction”. For the same molecule, in data set [2], the “average Draize score as compared to test sites treated with the control vehicle” value is on record as “did not exhibit an appreciable difference” and the “treating or reversing UV induced erythema” value is recorded as “not capable of treating or reversing UV induced erythema”.
